According to publication PMC8215115, “Systemically Achievable Doses of Beer Flavonoids Induce Estrogenicity in Human Endometrial Cells and Cause Synergistic Effects With Selected Pesticides” (Frontiers in Nutrition, 2021):
Entries after “also recorded” stand apart in the source; their conditions may differ. One block for each compound: values may come before it.

How the values were obtained:
[1] = system: ER-dependent induction of ALP expression in Ishikawa cells; assay: Alkaline phosphatase (ALP) assay for estrogenicity; type: cell-based, human; settings: for lowest concentration inducing ALP expression (starting from): single compound; for plateau of enzymatic (ALP) activity: relative to 1 nM E2 = 100%
Text: In the present study, five exemplary pesticides (Figure 1B) were selected based on at least one published report of them acting as ER agonists, among them the publicly discussed herbicide glyphosate (GLP). Alkaline phosphatase (ALP) expression in Ishikawa cells was used as a natural reporter gene system for estrogenicity. On the contrary to some other in vitro test systems, this human endometrial cancer cell line expresses both, ER-α and ER-β, and thus facilitates the observation of interactions between chemicals acting as agonists to different receptor isoforms ([22]). Measuring the ALP-catalyzed conversion rate of 4-nitrophenyl phosphate to 4-nitrophenol as a marker for enzyme expression and thus ER activation, the test compounds were tested individually and in combination to generally address the concern of cumulative effects within this class of pesticides. To enable a direct comparison of effect strength, the same test system was used to determine the estrogenicity of a mixture of the most important hop polyphenols, resembling their respective concentration ratios in beer. Lastly, the two mixtures were combined in different ratios to assess potential combinatory effects toward ER activation.
ALP assays were performed as recently described ([23]). Briefly, 10,000 Ishikawa cells per well were seeded in 96-well plates and allowed to attach for 48 h in assay medium (phenol red - free DMEM/F-12 supplemented with 1% (v/v) CD-FBS and 1% (v/v) P/S). Stock solutions were prepared by solving test compounds in DMSO, which were then diluted to the test concentrations in assay medium, resulting in a final DMSO concentration of 0.1–0.2% (v/v) (depending on the number of mixed compounds in incubation solutions, but consistently reflected by the same concentration in the respective solvent control). Cells were incubated with incubation solutions containing the test compounds or combinations thereof for another 48 h. Subsequently, cells were washed with PBS and lyzed by shock-freezing. ALP activity was determined by monitoring the conversion of 4-nitrophenyl phosphate to 4-nitrophenol photometrically at 405 nm with a PerkinElmer Victor 3V^TM plate reader. The slope of the obtained dose-response curves was taken as a measure for the ER-dependent induction of ALP expression.
In brief, this method uses the mass-action law-derived median-effect equation (MDEE) to linearize dose-response curves of single compounds and combinations thereof. Subsequently, it facilitates the calculation of a parameter (the CI) which is indicative for the type and strength of a combinatory effect. […] To apply the model to ALP assay data, the latter were normalized to both, the solvent control and the positive control (1 nM E2, 100% effect). MDEE fitting and CI calculations were carried out using the CISNE tool ([26]) and MS Excel. Corresponding graphs and all further statistical calculations (normal distribution, one-way ANOVA, etc.) were carried out in Origin® 2020.

Ishikawa cells [2] = assay: Sulforhodamine B (SRB) cell viability assay; type: cell-based, human; settings: for Onset of cytotoxicity (lowest observed effect level), LOEL / cytotoxicity at highest applied concentration: Ishikawa cells; for Onset of cytotoxicity (lowest observed effect level), LOEL: 48 h incubation, at least three independent SRB assays; for cytotoxicity at highest applied concentration: 48 h
Experimental: To ensure that effects observed in ALP assays were not caused by cytotoxicity, SRB cell viability assays were carried out in parallel. As with estrogenicity assays, 10,000 cells/well were seeded in 96-well plates, allowed to grow for 48 h and incubated with test solutions for another 48 h. Afterwards, cells were fixed by addition of 50% (v/v) trichloroacetic acid and 1 h incubation at 4°C. After 2 times washing with tab water and 2 times of washing with 1% (v/v) acetic acid, plates were dried overnight, incubated with SRB reagent for 45 min, washed twice with water, twice with 1% acetic acid and again dried overnight. Lastly, 10 mM TRIS base buffer was added to dissolve protein-bound SRB and the absorbance of each well was measured at 570 nm with a PerkinElmer Victor 3V^TM plate reader.
To ensure non-cytotoxicity and thus to exclude false reporting anti-estrogenic effects, SRB cell viability assays were carried out in parallel (Ishikawa cells, 48 h incubation) to ALP assays. The single pesticides Dic, End, Fen and Met caused cytotoxic effects at high concentrations, with the lowest observed effect doses reported in Table 3. iX lead to a loss of cellular protein at the highest applied dose of 100 μM, a concentration which was however not applied in ALP assays.

[3] = Pharmacokinetics of 8PN in humans receiving an extract from hops; type: in vivo; settings: consumption of 0.5–1 L of average-hopped beer, assuming linear kinetics
Text: (§1) An often-used justification for discarding endocrine disrupting phytoestrogens in beer as a health concern is that the low bioavailability of hop polyphenols would limit systemically achieved doses to non-hazardous concentrations. At first sight, this notion seems to be supported by pharmacokinetic studies. […] This might partially result from the additional formation of 8PN from the naturally co-occurring iX, the most prevalent prenylflavonoid in beer ([24]), within the human gut ([18]) and liver ([31]). This reaction should be regarded as a metabolic activation due to the much higher estrogenicity of the reaction product. Assuming linear kinetics, the consumption of 0.5–1 L of average-hopped beer (Table 2) could result in systemic 8PN concentrations around 0.5 nM, a dose sufficient to cause significant estrogenicity in our in vitro test system (Figure 2).

[4] = humans, extract from hops containing 0.25 mg 8PN; cited from earlier work
Ishikawa cells [5] = settings: cited from earlier work
[6] = system: ER-dependent induction of ALP expression in Ishikawa cells; parameters: method as in PMID 30283786; settings: cited from earlier work
[7] = Human intervention study, pharmacokinetics of XN; type: in vivo; settings: plasma, 20 mg, estimated from CMax/AUC assuming standard physiological parameters, read-out: bioavailability (rough estimate)
Text: as §1

[8] = parameters: method as in PMID 24038952; settings: humans, 20 mg of XN; cited from earlier work
[9] = system: MCF-7 breast cancer cells; parameters: method as in PMID 28711546; settings: cited from earlier work
[10] = Ishikawa cells, 48 h, scaled to 1 nM E2 = 100%

SMILES: O=S1OCC2C(CO1)C1(Cl)C(Cl)=C(Cl)C2(Cl)C1(Cl)Cl (stereo not shown) [End, endosulfan]
lowest concentration inducing ALP expression (starting from) ([1]; Ishikawa cells, 48 h): 5 nM | ED50 of ALP induction ([1]; calculated with the CISNE tool): 12300 ± 2900 nM | Onset of cytotoxicity (lowest observed effect level), LOEL (Ishikawa cells [2]): 50 µM

SMILES: OC(c1ccc(Cl)cc1)(c1ccc(Cl)cc1)C(Cl)(Cl)Cl [Dic, dicofol]
lowest concentration inducing ALP expression (starting from) ([1]; Ishikawa cells, 48 h): 10 nM | Onset of cytotoxicity (lowest observed effect level), LOEL (Ishikawa cells [2]): 50 µM

SMILES: CNC(=O)Oc1cc(C)c(SC)c(C)c1 [Met, methiocarb]
lowest concentration inducing ALP expression (starting from) ([1]; Ishikawa cells, 48 h): 10 nM | Onset of cytotoxicity (lowest observed effect level), LOEL (Ishikawa cells [2]): 100 µM

SMILES: CC(C)=CCc1c(O)cc(O)c2c1O[C@H](c1ccc(O)cc1)CC2=O [8PN, 8-prenylnaringenin]
ED50 of ALP induction [1, 10]: 2.44 ± 1.60 nM | lowest concentration inducing ALP expression (starting from) ([1]; Ishikawa cells, 48 h): 0.5 nM | plateau of enzymatic (ALP) activity [1]: about 75% | estimated systemic concentration [3]: around 0.5 nM | AUC [4]: 24.3 ± 8.9 ng·h/mL | CMax [4]: 1.4 ± 0.3 µg/L | Cmax [4]: 3.8 nM | cytotoxicity at highest applied concentration (Ishikawa cells [2]; 500 nM): no cytotoxicity

bioavailability [7]: ~2%
SMILES: COc1cc(O)c(CC=C(C)C)c(O)c1C(=O)/C=C/c1ccc(O)cc1 [XN, xanthohumol]
cytotoxicity in this experimental setup (Ishikawa cells [5]): non-cytotoxicity | estrogenicity in this test system [6]: not to act estrogenic | area under the curve (AUC) [8]: 92 ± 68 ng·h/mL | peak plasma concentration (CMax) [8]: 33 ± 7 µg/L

SMILES: COc1cc(O)c(CC=C(C)C)c2c1C(=O)CC(c1ccc(O)cc1)O2 (stereo not shown) [iX, isoxanthohumol]
ED50 of ALP induction [1, 10]: 342 ± 125 nM | lowest concentration inducing ALP expression (starting from) ([1]; Ishikawa cells, 48 h): 100 nM | plateau of enzymatic (ALP) activity [1]: about 75% | Onset of cytotoxicity (lowest observed effect level), LOEL (Ishikawa cells [2]): 100 µM

SMILES: O=C(O)CNCP(=O)(O)O [Glp, glyphosate]
ER-mediated gene expression (ALP) ([1]; concentrations up to 300 μM): neither ER-mediated gene expression nor cytotoxicity; also recorded: did not act estrogenic | concentration causing estrogen-like growth stimulation [9]: ≥ 59 µM | cytotoxicity (Ishikawa cells [2]; concentrations up to 300 μM): neither ER-mediated gene expression nor cytotoxicity | cytotoxicity at highest applied concentration (Ishikawa cells [2]; up to 500 μM): no cytotoxicity

SMILES: OC(c1ccc(Cl)cc1)(c1cncnc1)c1ccccc1Cl (stereo not shown) [Fen, fenarimol]
lowest concentration inducing ALP expression (starting from) ([1]; Ishikawa cells, 48 h): 2.5 nM | Onset of cytotoxicity (lowest observed effect level), LOEL (Ishikawa cells [2]): 100 µM

SMILES: C[C@]12CC[C@@H]3c4ccc(O)cc4C[C@@H](CCCCCCCCC[S+]([O-])CCCC(F)(F)C(F)(F)F)[C@H]3[C@@H]1CC[C@@H]2O (stereo partly shown) [ICI 182,780, fulvestrant, reference compound]
effect of co-incubation on estrogenicity of active compounds ([1]; co-incubation with active concentrations of the compounds): suppression of estrogenicity
